Measurements published in patent US10562850B2, “Human plasma kallikrein inhibitors” (priority 2015, dated 2020).

Biological target: human plasma kallikrein (Homo sapiens (Human), UniProt P03952)
Experiment: Plasma Kallikrein Activity Assay (chromogenic substrate S2302)
Format: biochemical
Conditions: 2 nM kallikrein, 80 μM S2302, 30° C., pH 7.8; Cheng-Prusoff
Description: Plasma Kallikrein Activity Assay.
The effect of compounds of the invention on human plasma kallikrein activity was determined using the chromogenic substrates (DiaPharma Group, Inc., West Chester, Ohio, USA). In these experiments, 2 nM kallikrein (Enzyme Research Laboratories, South Bend, Ind., USA) was incubated with 80 μM S2302 (H-D-Pro-Phe-Arg-p-nitroaniline) in the absence or presence of increasing concentrations of compounds of the invention in a final volume of 200 μL Tris-HCl buffer (200 mM NaCl; 2.5 mM CaCl2; 50 mM Tris-HCl, pH 7.8).
After incubation at 30° C., the activity of kallikrein was measured as a change in absorbance at OD 405 nm using BioTek PowerWave X340 Microplate Reader (Winooski, Vt., USA). Data were analyzed using SigmaPlot software (Systat Software, Inc., San Jose, Calif., USA) (Four Parameter Logistic Curve). Ki values for the inhibitors were determined using the Cheng-Prusoff equation (Biochem. Pharmacol. 1973, 22, 3099).

Chain of human plasma kallikrein (P03952 391-638): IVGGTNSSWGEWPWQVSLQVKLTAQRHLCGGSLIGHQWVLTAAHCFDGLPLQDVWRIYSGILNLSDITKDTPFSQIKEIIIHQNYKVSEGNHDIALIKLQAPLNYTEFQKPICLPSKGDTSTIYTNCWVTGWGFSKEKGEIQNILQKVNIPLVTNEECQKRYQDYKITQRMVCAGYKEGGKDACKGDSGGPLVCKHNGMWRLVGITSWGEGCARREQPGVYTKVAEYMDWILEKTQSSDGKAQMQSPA
Chain of human plasma kallikrein (P03952 20-390 partner): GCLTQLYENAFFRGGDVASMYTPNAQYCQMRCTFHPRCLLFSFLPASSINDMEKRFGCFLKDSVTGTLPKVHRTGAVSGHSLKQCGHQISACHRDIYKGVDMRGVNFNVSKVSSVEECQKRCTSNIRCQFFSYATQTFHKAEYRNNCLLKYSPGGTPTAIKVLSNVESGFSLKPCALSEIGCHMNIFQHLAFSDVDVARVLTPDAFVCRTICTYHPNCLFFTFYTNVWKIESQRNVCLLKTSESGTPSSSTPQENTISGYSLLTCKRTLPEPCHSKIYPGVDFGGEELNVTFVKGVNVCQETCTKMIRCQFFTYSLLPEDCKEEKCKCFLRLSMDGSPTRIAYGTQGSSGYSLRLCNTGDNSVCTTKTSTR

| SMILES | Ki [µM] |
| --- | --- |
| O=C(Nc1cc(C(NCC2CC2)c2ccccc2)ccc1F)[C@H]1C[C@@H](O)CN1C(=O)Nc1ccc(Cl)cc1 (stereo partly drawn) [Compound 1p, (2R,4R)-N1-(4-chlorophenyl)-N2-(5-(((cyclopropylmethyl)amino)(phenyl)methyl)-2-fluorophenyl)-4-hydroxypyrrolidine-1,2-dicarboxamide] | > 0.1 |
| CO[C@@H]1C[C@H](C(=O)Nc2cc(C(N)(CCC3CC3)c3ccccn3)ccc2F)N(C(=O)Nc2ccc(Cl)cn2)C1 (stereo partly drawn) [Compound 36d, (2R,4R)-N2-(5-((+)-1-amino-3-cyclopropyl-1-(pyridin-2-yl)propyl)-2-fluorophenyl)-N1-(5-chloropyridin-2-yl)-4-methoxypyrrolidine-1,2-dicarboxamide] | > 0.1 |
| N#Cc1cccc(C(N)(CCC2CC2)c2ccc(F)c(NC(=O)[C@H]3C[C@@H](O)CN3C(=O)Nc3cccc4ccccc34)c2)c1 (stereo partly drawn) [Compound 26b, (2R,4R)-N2-(5-((+)-1-amino-1-(3-cyanophenyl)-3-cyclopropylpropyl)-2-fluorophenyl)-4-hydroxy-N1-(naphthalen-1-yl)pyrrolidine-1,2-dicarboxamide] | > 0.1 |
| NC(CCC1CC1)(c1ccc(F)c(NC(=O)[C@H]2C[C@](O)(c3ccccc3)CN2C(=O)Nc2ccc(Cl)cc2)c1)c1ccccn1 (stereo partly drawn) [Compound 31i, (2R,4S)-N2-(5-((−)-1-amino-3-cyclopropyl-1-(pyridin-2-yl)propyl)-2-fluorophenyl)-N1-(4-chlorophenyl)-4-hydroxy-4-phenylpyrrolidine-1,2-dicarboxamide] | < 0.05 |
| CCNC(CCC1CC1)(c1ccnc(C)c1)c1ccc(F)c(NC(=O)[C@H]2C[C@@H](OC)CN2C(=O)Nc2ccc(Cl)cn2)c1 (stereo partly drawn) [Compound 78a, (2R,4R)-N1-(5-chloropyridin-2-yl)-N2-(5-((+)-3-cyclopropyl-1-(ethylamino)-1-(2-methylpyridin-4-yl)propyl)-2-fluorophenyl)-4-methoxypyrrolidine-1,2-dicarboxamide] | < 0.05 |
| N#Cc1cccc(C(CCC2CC2)(NC(=O)Nc2ccc(Cl)cc2)c2ccc(F)c(NC(=O)[C@H]3C[C@](O)(c4ccccc4)CN3C(=O)Nc3ccc(Cl)cc3)c2)c1 (stereo partly drawn) [Compound 30b, (2R,4S)-N1-(4-chlorophenyl)-N2-(5-((+)-1-(3-(4-chlorophenyl)ureido)-1-(3-cyanophenyl)-3-cyclopropylpropyl)-2-fluorophenyl)-4-hydroxy-4-phenylpyrrolidine-1,2-dicarboxamide] | 0.05 to 0.1 |
| CO[C@@H]1C[C@H](C(=O)Nc2cc(C(N)(CCC3CC3)c3cccc(C#N)c3)ccc2F)N(C(=O)Nc2ccc(Cl)cn2)C1 (stereo partly drawn) [Compound 18b, (2R,4R)-N2-(5-((+)-1-amino-1-(3-cyanophenyl)-3-cyclopropylpropyl)-2-fluorophenyl)-N1-(5-chloropyridin-2-yl)-4-methoxypyrrolidine-1,2-dicarboxamide] | < 0.05 |
| CO[C@@H]1C[C@H](C(=O)Nc2cc(C(CCC3CC3)(N[S@+]([O-])C(C)(C)C)c3cccc(C#N)c3)ccc2F)N(C(=O)N(C)c2ccc(Cl)cc2)C1 (stereo partly drawn) [Compound 6c, (2R,4R)-N1-(4-chlorophenyl)-N2-(5-((−)-1-(3-cyanophenyl)-3-cyclopropyl-1-((R)-1,1-dimethylethylsulfinamido)propyl)-2-fluorophenyl)-4-methoxy-N1-methylpyrrolidine-1,2-dicarboxamide] | > 0.1 |
| N#Cc1cccc(C(N)(CCC2CC2)c2ccc(F)c(NC(=O)[C@H]3C[C@](O)(c4ccccc4)CN3)c2)c1 (stereo partly drawn) [Compound 29d, (2R,4S)-N-(5-((−)-1-amino-1-(3-cyanophenyl)-3-cyclopropylpropyl)-2-fluorophenyl)-4-hydroxy-4-phenylpyrrolidine-2-carboxamide] | > 0.1 |
| CO[C@@H]1C[C@H](C(=O)Nc2cc(C(CCC3CC3)(NS(C)(=O)=O)c3ccncc3)ccc2F)N(C(=O)Nc2ccc(Cl)cn2)C1 (stereo partly drawn) [Compound 74a, (2R,4R)-N1-(5-chloropyridin-2-yl)-N2-(5-((+)-3-cyclopropyl-1-(methylsulfonamido)-1-(pyridin-4-yl)propyl)-2-fluorophenyl)-4-methoxypyrrolidine-1,2-dicarboxamide] | < 0.05 |
| Cc1ccc(NC(=O)N2C[C@H](O)C[C@@H]2C(=O)Nc2cc(C(N)(CCC3CC3)c3cccc(C#N)c3)ccc2F)cc1 (stereo partly drawn) [Compound 22b, (2R,4R)-N2-(5-((+)-1-amino-1-(3-cyanophenyl)-3-cyclopropylpropyl)-2-fluorophenyl)-4-hydroxy-N1-p-tolylpyrrolidine-1,2-dicarboxamide] | > 0.1 |
| CC(=O)O[C@@H]1C[C@H](C(=O)Nc2cc(C(N)(CCC3CC3)c3cccc(C#N)c3)ccc2F)N(C(=O)Nc2ccc(Cl)cn2)C1 (stereo partly drawn) [Compound 14g, (3R,5R)-5-(5-((+)-1-amino-1-(3-cyanophenyl)-3-cyclopropylpropyl)-2-fluorophenylcarbamoyl)-1-(5-chloropyridin-2-ylcarbamoyl)pyrrolidin-3-yl acetate] | > 0.1 |
| CO[C@@H]1C[C@H](C(=O)Nc2cc(C(N)(CCC3CC3)c3cccc(C#N)c3)ccc2F)N(C(=O)N(C)c2ccc(Cl)cc2)C1 (stereo partly drawn) [Compound 6e, (2R,4R)-N2-(5-((−)-1-amino-1-(3-cyanophenyl)-3-cyclopropylpropyl)-2-fluorophenyl)-N1-(4-chlorophenyl)-4-methoxy-N1-methylpyrrolidine-1,2-dicarboxamide] | > 0.1 |
| CC(C)(C)[S@@+]([O-])NC(CCC1CC1)(c1cccc(C#N)c1)c1ccc(F)c(NC(=O)[C@H]2C[C@H](O)CN2C(=O)Nc2ccc(Cl)cc2)c1 (stereo partly drawn) [Compound 9b, (2R,4S)-N1-(4-chlorophenyl)-N2-(5-((+)-1-(3-cyanophenyl)-3-cyclopropyl-1-((R)-1,1-dimethylethylsulfinamido)propyl)-2-fluorophenyl)-4-hydroxypyrrolidine-1,2-dicarboxamide] | > 0.1 |
| CO[C@@H]1C[C@H](C(=O)Nc2cc(C(N)(CCC3CC3)c3ccncc3)ccc2F)N(C(=O)c2ccc3cc[nH]c3c2)C1 (stereo partly drawn) [Compound 82a, (2R,4R)-N-(5-(-(+)-1-amino-3-cyclopropyl-1-(pyridin-4-yl)propyl)-2-fluorophenyl)-1-(1H-indole-6-carbonyl)-4-methoxypyrrolidine-2-carboxamide] | > 0.1 |
| CO[C@@H]1C[C@H](C(=O)Nc2cccc(C(N)(CCC3CC3)c3ccncc3)c2)N(C(=O)Nc2ccc(Cl)cn2)C1 (stereo partly drawn) [Compound 75e, (2R,4R)-N2-(3-((+)-1-amino-3-cyclopropyl-1-(pyridin-4-yl)propyl)phenyl)-N1-(5-chloropyridin-2-yl)-4-methoxypyrrolidine-1,2-dicarboxamide] | < 0.05 |
| CC(C)(C)[S@@+]([O-])NC(CCC1CC1)(c1cccc(C#N)c1)c1ccc(F)c(NC(=O)[C@H]2C[C@@H](O)CN2C(=O)Nc2ccc(C(F)(F)F)cc2)c1 (stereo partly drawn) [Compound 27a, (2R,4R)-N2-(5-((+)-1-(3-cyanophenyl)-3-cyclopropyl-1-((R)-1,1-dimethylethylsulfinamido)propyl)-2-fluorophenyl)-4-hydroxy-N1-(4-(trifluoromethyl)phenyl)pyrrolidine-1,2-dicarboxamide] | > 0.1 |
| CO[C@@H]1C[C@H](C(=O)Nc2cc(C(N)(CCC3CC3)c3cccc(C#N)c3)ccc2F)N(C(=O)Nc2ccc(Cl)cc2)C1 (stereo partly drawn) [Compound 17b, (2R,4R)-N2-(5-((+)-1-amino-1-(3-cyanophenyl)-3-cyclopropylpropyl)-2-fluorophenyl)-4-methoxy-N1-(4-chlorophenyl)pyrrolidine-1,2-dicarboxamide] | 0.05 to 0.1 |
| NC(CCC1CC1)(c1ccncc1)c1ccc(F)c(NC(=O)[C@H]2C[C@H](c3ccccc3)CN2C(=O)Nc2ccc(Cl)cn2)c1 (stereo partly drawn) [Compound 47d, (2R,4R)-N2-(5-((+)-1-amino-3-cyclopropyl-1-(pyridin-4-yl)propyl)-2-fluorophenyl)-N1-(5-chloropyridin-2-yl)-4-phenylpyrrolidine-1,2-dicarboxamide] | 0.05 to 0.1 |
| CO[C@@H]1C[C@H](C(=O)Nc2cc(C(CCC3CC3)(N[S@+]([O-])C(C)(C)C)c3ccccc3)ccc2F)N(C(=O)Nc2ccc(Cl)cn2)C1 (stereo partly drawn) [Compound 66c, (2R,4R)-N1-(5-chloropyridin-2-yl)-N2-(5-((+)-3-cyclopropyl-1-((R)-1,1-dimethylethylsulfinamido)-1-phenylpropyl)-2-fluorophenyl)-4-methoxypyrrolidine-1,2-dicarboxamide] | > 0.1 |
| CO[C@H]1C[C@@H](C(=O)Nc2cc(C(CCC3CC3)(N[S@+]([O-])C(C)(C)C)c3cccc(C#N)c3)ccc2F)N(C(=O)Nc2ccc(Cl)cc2)C1 (stereo partly drawn) [Compound 11d, (2S,4S)-N1-(4-chlorophenyl)-N2-(5-(1-(3-cyanophenyl)-3-cyclopropyl-1-((R)-1,1-dimethylethylsulfinamido)propyl)-2-fluorophenyl)-4-methoxypyrrolidine-1,2-dicarboxamide] | > 0.1 |
| CO[C@]1(c2ccccc2)C[C@H](C(=O)Nc2cc(C(N)(CCC3CC3)c3ccncc3)ccc2F)N(C(=O)Nc2ccc(Cl)cn2)C1 (stereo partly drawn) [Compound 45c, (2R,4S)-N2-(5-((+)-1-amino-3-cyclopropyl-1-(pyridin-4-yl)propyl)-2-fluorophenyl)-N1-(5-chloropyridin-2-yl)-4-methoxy-4-phenylpyrrolidine-1,2-dicarboxamide] | > 0.1 |
| CO[C@@H]1C[C@H](C(=O)Nc2cc(C(CCC3CC3)n3ccccc3=O)ccc2F)N(C(=O)Nc2ccc(Cl)cn2)C1 (stereo partly drawn) [Compound 43m, (2R,4R)-N1-(5-chloropyridin-2-yl)-N2-(5-((+)-3-cyclopropyl-1-(2-oxopyridin-1(2H)-yl)propyl)-2-fluorophenyl)-4-methoxypyrrolidine-1,2-dicarboxamide] | 0.05 to 0.1 |
